Assay results from patent US20230295255A1, “ANNEXIN A1-DERIVED POLYPEPTIDE ANALOGUES” (Reso Ther Pharma A/S, priority 2020, published 2023).
Each block holds one molecule with its values, some of them ahead of it. Ends that are not written are not given here.

How the values were obtained:
[1] = Determination of terminal half times after intravenous injection in beagle dogs (plasma, LC/MS-MS); type: in vivo; conditions: dog; for half-life: in vivo, intravenous, read-out: terminal half time (t½)
Description: 6 beagle dogs, 3 males and 3 females, HsdRcc:DOBE from Marshall BioResources, F-03800 Gannat, France. Age 5-6 months, weight 6-8 kg were kept 21° C.±3° C. with relative humidity of 55%±15% with 12 hours light and 12 hours darkness (Light on from 06:00 to 18:00 h). Male and females kept separate.
Following a pre-treatment period of a minimum of two weeks the animals received an intravenous injection of test item through the cephalic vein given over 5 min using a butterfly syringe with volume adjusted according to the most recent body weight data. The butterfly was flushed with 5 ml 0.9% NaCl immediately after injection. The dose volume was 5 mL/kg body weight. One male and one female were treated at each dose level.
The following doses of test item was given: 2, 6 and 10 mg/kg in 5% glucose; 1.0 mM acetic acid. One male and one female were treated on each dose level. For the control peptide the doses given were: 1, 3 and 10 mg/kg.
(§1) Blood samples for determination of plasma levels of test item of approximately 0.4 mL per sample was drawn from the contralateral cephalic vein. The blood was sampled into a collecting tube containing K2EDTA as anticoagulant. After collection, the collecting tube was immediately labelled and placed in ice water (sufficient to cover the blood entirely) until centrifugation. Within 20 minutes after blood sampling, blood was centrifuged for 8 minutes at 2150 G, at +4° C.). The entire plasma sample was transferred to Eppendorf microcentrifuge tubes (Polypropylene tubes with Eppendorf Safe-Lock lid, Sigma, Denmark). Within 30 minutes after centrifugation, plasma was snap frozen on dry ice and stored at −70° C. or below.
Plasma concentration of test item and control peptide was measured by use of LC/MS-MS.

[2] = Determination of terminal half times after intravenous injection in rats (plasma, LC/MS-MS); parameters: species or system Male Wistar rats; conditions: in vivo, rat, read-out: terminal half time (t½)
Description: Male Wistar rats (Crl:WI(Han), Charles River, Germany, weight 300 g±20 g were kept in transparent polycarbonate cages (floor area: 1500 cm^2—height: at least 21 cm) with two in each cage, males and females separated at a temperature of 21° C.±3° C. and relative humidity of 55%±15% with a 12 hours light and 12 hours darkness (Light on from 06:00 to 18:00 h). Following a minimum of five days acclimatization the animals received an intravenous injection of test item through the tail vein given over 60 seconds using a butterfly syringe with volume adjusted according to the most recent body weight data. The butterfly was flushed with 0.4 mL 0.9% NaCl immediately after injection. […]. The dose volume was 5 mL/kg body weight.
The following doses of test item was given: 0.1, 1 and 10 mg/kg in 5% glucose; 1.0 mM acetic acid. Six animals were treated on each dose level.
as §1, with “On the day of dosing blood” for “Blood”, “samples” for “samples for determination of plasma levels of test item”, “mL” for “mL per sample”, “using” for “from”, “sublingual method.” for “contralateral cephalic vein.”
Time point for blood sampling: 2, 5, 10 and 20 min from completion of dosing.
Plasma concentration of the test item was measured by use of LC/MS-MS.

[3] = Body weight and liver weight in experimental model of Nonalcoholic Steatohepatitis (HFD mice); type: in vivo, C57BL/6 mice; conditions: end of 6 weeks treatment, i.p. once daily 5 days a week, AnxA1 1 mg/kg/day, Test Item A 250 μg/kg/day
Description: (§2) Male C57BL/6 mice were housed (7-9/cage) in pathogen free conditions and maintained at constant room temperature (20-22° C.) with free access to water and food under a 12 h light/dark cycle (lights on at 07:00 h). […] This diet leads within 16 weeks to steatohepatitis associated with obesity and insulin resistance, which mimics what is seems in humans suffering from NASH. The control group received ad libitum normal chow for 16 weeks. The body weight for each mouse was recorded weekly by using a dedicated digital balance (each Friday afternoon—starting from 5 pm).
(§3) Mice were divided in experimental groups as below: • A: Non HFD: Time control group: Had access to standard chow diet throughout the study period • B: Vehicle: Vehicle treatment group: Received HFD+Vehicle treatment (sterile saline injections) once daily • C: AnxA1: AnnexinA1 treatment group: Received HFD+Annexin A1 full-length protein at a dose of 1 mg/kg/day. • D: Test Item A: Test compound A group: Received HDF+250 μg/kg/day of Test compound A=[…] (SEQ ID NO:4); (AnxA1 (2-46 Val24Leu).
Treatment was commended following 10 weeks HFD and was given as a once daily intraperitoneal given 5 days a week (Monday-Friday) for 6 weeks. The animals were kept on HFD during the 6 weeks treatment period. […]

TNF-α = assay: Low grade inflammation: liver expression level of TNF-α by real time PCR in HFD NASH model; type: in vivo, C57BL/6 mice; conditions: HFD mice, AnxA1 1 mg/kg/day, Test Item A 250 μg/kg/day
Description: as §2
Low inflammation in the livers was determined by the expression level of TNF-α measured by real time PCR using a commercial available tracer.
as §3
Treatment was commended following 10 weeks HFD and was given as a once daily intraperitoneal given 5 days a week (Monday-Friday) for 6 weeks. […]

[4] = Liver injury assessment: blood levels of alanine aminotransferase (ALT) in HFD NASH model; type: in vivo, C57BL/6 mice; conditions: HFD mice, after 6 weeks treatment, i.p.; AnxA1 1 mg/kg/day, Test Item A 250 μg/kg/day
Description: as §2
Liver injury was assessed before and after treatment with test compound, control compound or vehicle by evaluating blood levels of alanine aminotransferase (ALT) with a spectrophotometric kit. Blood sampling was carried out by retro-orbital bleeding.
as §3, with “Val24Leu). […]” for “Val24Leu).”

half-life ([1]; 1 mg/kg): 5.57 min
half-life ([1]; 3 mg/kg): 5.69 min
half-life ([1]; 10 mg/kg): 5.86 min
Molecule: AMVSEFLKQAWFIENEEQEYVQTLKSSKGGPGSAVSPYPTFNPSSDV [control peptide, reference compound]

half-life ([2]; 0.1 mg/kg): 3.18 min
half-life ([2]; 1 mg/kg): 2.87 min
half-life ([2]; 10 mg/kg): 5.85 min
terminal half time (t½) of test item, times longer than the control peptide ([1]; single intravenous dosing): up to 4.8 times
half-life ([1]; 2 mg/kg): 9.16 min
half-life ([1]; 6 mg/kg): 19.8 min
half-life ([1]; 10 mg/kg): 28.3 min
Molecule: AMVSEFLKQAWFIENEEQEYVQTLKSSKGGPGSAVSPYPTFNPSS [Test Item A]

B1: AnxA1: full length Annexin A1 protein (Homo sapiens, SEQ ID NO:1) (protein, listed as Homo Sapiens)
chain: MAMVSEFLKQAWFIENEEQEYVQTVKSSKGGPGSAVSPYPTFNPSSDVAALHKAIMVKGVDEATIIDILTKRNNAQRQQIKAAYLQETGKPLDETLKKALTGHLEEVVLALLKTPAQFDADELRAAMKGLGTDEDTLIEILASRTNKEIRDINRVYREELKRDLAKDITSDTSGDFRNALLSLAKGDRSEDFGVNEDLADSDARALYEAGERRKGTDVNVFNTILTTRSYPQLRRVFQKYTKYSKHDMNKVLDLELKGDIEKCLTAIVKCATSKPAFFAEKLHQAMKGVGTRHKALIRIMVSRSEIDMNDIKAFYQKMYGISLCQAILDETKGDYEKILVALCGGN
Bodyweight, mean value per group [3]: 32.5 g
Liver Weight, mean value per group [3]: 2.0 g
Relative expression levels of TNF-α with the mean expression in group B (vehicle) set to 1 (TNF-α): 1.17±023
ALT (blood alanine aminotransferase) [4]: 100 u/L
